Assay results taken from patent US20230167088A1, “1-PYRAZINYLPYRAZOLYL-3-OXYALKYL ACIDS AND THEIR DERIVATIVES, AND THEIR USE FOR CONTROL OF UNDESIRED PLANT GROWTH” (BAYER AKTIENGESELLSCHAFT, priority 2020, published 2023).

Columns and labels:
[1] = tested on: LOLRI; assay: Herbicidal pre-emergence action 2a (greenhouse pots, visual scoring); type: in vivo, Lolium rigidum; conditions: dosage 320 g/ha, visual scoring after about 3 weeks vs untreated controls
Outline: (§1)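 Pre-emergence soil-surface spray: WP/EC, 0.5% additive, 600 l/ha water, 320 and/or 80 g/ha. Greenhouse ~3 wk. Visual % damage vs untreated (100% = plants dead, 0% = like control).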

[2] = tested on: DIGSA; assay: as above; type: in vivo, Digitaria sanguinalis; conditions: dosage 320 g/ha, visual scoring after about 3 weeks
Outline: as §1

[3] = tested on: VIOTR; assay: as above; type: in vivo, Viola tricolor; conditions: dosage 320 g/ha, visual scoring after about 3 weeks vs untreated controls
Outline: as §1

[4] = tested on: AMARE; assay: Herbicidal pre-emergence action 2b (doubly sown, 1280 g/ha); type: in vivo, Amaranthus retroflexus; conditions: doubly sown pots, dosage 1280 g/ha, visual scoring after about 3 weeks
Outline: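 Compounds were sprayed pre-emergence as wettable powders or emulsion concentrates onto soil covering freshly sown weed seeds, two species per pot. Percent activity was judged by eye roughly 3 weeks later versus untreated plants.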

[5] = tested on: VERPE; assay: Herbicidal pre-emergence action 2a (greenhouse pots, visual scoring); type: in vivo, Veronica persica; conditions: dosage 320 g/ha, visual scoring after about 3 weeks vs untreated controls
Outline: as §1

[6] = tested on: POAAN; assay: Herbicidal post-emergence action 1b (twin sowing, 1280 g/ha); type: in vivo, Poa annua; conditions: dosage 1280 g/ha, visual rating about 3 weeks after treatment
Outline: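 Greenhouse weed pairs (mono- with dicotyledonous) were treated 2–3 weeks after sowing, at one leaf, using an aqueous spray at 600 L/ha carrying 0.5% additive. Percent activity, judged by eye against untreated plants, was recorded roughly 3 weeks post-application.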

[7] = tested on: AVEFA; assay: Herbicidal pre-emergence action 2a (greenhouse pots, visual scoring); type: in vivo, Avena fatua; conditions: dosage 320 g/ha, visual scoring after about 3 weeks
Outline: as §1

[8] = tested on: harmful plants; assay: Herbicidal post-emergence action 1a, summary across species; type: in vivo; conditions: Tables A1 to A15 (320 g/ha and/or 80 g/ha)
Method: a) Seeds of monocotyledonous and dicotyledonous weeds and crop plants are placed in sandy loam in plastic or organic plant pots, covered with soil and cultivated in a greenhouse under controlled growth conditions. 2 to 3 weeks after sowing, the test plants are treated at the one-leaf stage. The compounds of the invention, formulated in the form of wettable powders (WP) or as emulsion concentrates (EC), are then sprayed onto the green parts of the plants as aqueous suspension or emulsion with addition of 0.5% additive at a water application rate of 600 1/ha (converted). After the test plants have been kept in the greenhouse under optimum growth conditions for about 3 weeks, the activity of the preparations is rated visually in comparison to untreated controls. For example, 100% activity=the plants have died, 0% activity=like control plants.
Tables A1 to A15 below show the effects of selected compounds of the general formula (I) according to Tables 1 and 2 on various harmful plants and an application rate corresponding to 320 g/ha and/or 80 g/ha, which were obtained by the experimental procedure mentioned above.
For example, compound nos. I-05, I-07, I-08, I-10, I-12, I-16, I-17, I-22, I-36, I-37, I-39 and I-40 in the post-emergence method have very good action (80% to 100% herbicidal activity) against harmful plants such as Alopecurus myosuroides, Amaranthus retroflexus, Avena fatua, Lolium rigidum, Polygonum convolvulus, Setaria viridis, Veronica persica and Viola tricolor at an application rate of 0.32 kg of active substance per hectare.

[9] = tested on: VIOTR; assay: Herbicidal post-emergence action 1a (greenhouse pots, visual rating); type: in vivo, Viola tricolor; conditions: visual rating about 3 weeks after treatment
Outline: (§2)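 Visual scoring versus untreated plants (100% = plants dead, 0% = as control) followed roughly 3 weeks in the greenhouse after treatment. Plants grown in sandy loam pots had been sprayed on green parts at the one-leaf stage, 2–3 weeks post-sowing, with aqueous WP/EC preparations containing 0.5% additive, 600 l/ha, at 320 and/or 80 g/ha.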

[10] = tested on: PHBPU; assay: as above; type: in vivo, Pharbitis purpurea; conditions: visual rating about 3 weeks after treatment
Outline: as §2

[11] = tested on: DIGSA; assay: as above; type: in vivo, Digitaria sanguinalis; conditions: rated visually about 3 weeks after treatment, 100% = plants have died, 0% = like control plants
Outline: as §2

Structure (SMILES) | Pre-emergence action against LOLRI in % [1] [%] | Pre-emergence action against DIGSA in % [2] [%] | Pre-emergence action against VIOTR in % [3] [%] | Pre-emergence action at 1280 g/ha against AMARE in % [4] [%] | Pre-emergence action against VERPE in % [5] [%] | Post-emergence action at 1280 g/ha against POAAN in % [6] [%] | Pre-emergence action against AVEFA in % [7] [%] | herbicidal efficacy against harmful plants in the case of post-emergence treatment (in words) [8] | Post-emergence action against VIOTR in % ([9]; dosage 80 g/ha) [%] | Post-emergence action against VIOTR in % ([9]; dosage 320 g/ha) [%] | Post-emergence action against PHBPU in % ([10]; dosage 80 g/ha) [%] | Post-emergence action against PHBPU in % ([10]; dosage 320 g/ha) [%] | Post-emergence action against DIGSA in % ([11]; Dosage 80 g/ha) [%] | Post-emergence action against DIGSA in % ([11]; Dosage 320 g/ha) [%]
COC(=O)[C@@H](C)Oc1nn(-c2cnccn2)c(-c2ccc(F)c(F)c2)c1C#N [Example I-46] | 100 | 100 | 100 | 100 | 100 | 100 | 90 |  |  |  |  |  |  | 
COC(=O)COc1nn(-c2cnccn2)c(-c2cncc(F)c2)c1Br [Example I-07] | 100 | 100 | 100 |  | 100 |  | 90 | good herbicidal efficacy | 80 | 90 | 90 | 90 | 80 | 90
COC(=O)[C@@H](C)Oc1nn(-c2cnccn2)c(-c2cncc(F)c2)c1C#N [Example I-40] | 90 | 100 | 90 | 100 |  | 100 |  | good herbicidal efficacy |  | 80 |  | 90 |  | 80
COC(=O)[C@@H](C)Oc1nn(-c2cnccn2)c(-c2ccnc(F)c2)c1Br [Example I-34] | 100 | 100 | 100 | 100 |  | 100 | 90 | good herbicidal efficacy | 90 | 90 |  | 80 |  | 80
COC(=O)C(C)Oc1nn(-c2cnccn2)c(-c2cncc(F)c2)c1Br (racemic) [Example I-08] | 100 | 100 | 100 |  | 100 |  | 90 | good herbicidal efficacy | 90 | 90 | 80 | 90 |  | 80
C[C@@H](Oc1nn(-c2cnccn2)c(-c2cccc(F)c2)c1Br)C(=O)O [Example I-48] | 100 | 100 | 100 | 100 | 100 | 100 | 90 |  |  |  |  |  |  | 
COC(=O)COc1nn(-c2cnccn2)c(-c2ccc(F)nc2)c1Br [Example I-11] | 100 | 100 | 100 | 100 | 90 | 100 |  | good herbicidal efficacy | 90 | 100 | 80 | 80 |  | 
CCOC(=O)COc1nn(-c2cnccn2)c(-c2ccccc2)c1Br [Example I-01] | 80 | 90 |  | 100 | 90 |  |  | good herbicidal efficacy | 90 | 90 | 80 | 80 |  | 80
COC(=O)COc1nn(-c2cnccn2)c(-c2ccc(F)c(F)c2)c1Br [Example I-15] | 100 | 100 | 100 |  | 100 |  | 80 | good herbicidal efficacy | 90 | 90 | 90 | 90 |  | 90
COC(=O)[C@@H](C)Oc1nn(-c2cnccn2)c(-c2ccc(F)c(F)c2)c1Br [Example I-45] | 90 | 100 | 100 | 100 | 80 | 100 | 80 | good herbicidal efficacy | 80 | 90 |  | 90 |  | 
CCOC(=O)COc1nn(-c2cnccn2)c(-c2ccc(F)nc2)c1Br [Example I-52, ethyl {[4-bromo-5-(6-fluoropyridin-3-yl)-1-(pyrazin-2-yl)-1H-pyrazol-3-yl]oxy}acetate] | 100 | 100 | 90 | 90 | 90 |  |  |  |  | 80 | 80 |  |  | 
COC(=O)C(C)Oc1nn(-c2cnccn2)c(-c2ccc(F)c(F)c2)c1C#N (racemic) [Example I-22] | 100 | 100 | 90 | 100 |  | 100 | 90 | good herbicidal efficacy | 80 | 90 | 80 | 90 |  | 80
COC(=O)C(C)Oc1nn(-c2cnccn2)c(-c2ccnc(F)c2)c1Br (racemic) [Example I-10] | 100 | 100 | 80 | 100 |  | 100 | 90 | good herbicidal efficacy | 90 | 100 |  |  |  | 80
